Assay results as given in ChEMBL document CHEMBL1158045, “Phenolic constituents of the roots of Sophora flavescens” (J Nat Prod, 2006).
In brackets after ≈: the same amount, converted by molar mass.

The compounds below were run on KB (assay: Cytotoxicity against human KB cells).
Format: functional, cell-based

Point of comparison: `CC(C)=CCc1cc(-c2cc3cc4c(cc3o2)OCO4)c(O)cc1O`, IC50 8 µg/mL (≈ 23.6 µM). Against it:
- C=C(C)C(CC=C(C)C)Cc1c(O)cc(O)c2c(=O)c(O)c(-c3ccc(O)cc3)oc12 (stereo not given) — 3-fold higher, 24.3 µg/mL (≈ 57.5 µM)
- COc1cc2c(c(O)c1C(=O)/C=C/c1ccc(O)cc1O)CC(CC=C(C)C)C(C)(C)O2 (stereo not given) [CYCLOKURARIDIN] — 1.9-fold higher, 15.1 µg/mL (≈ 34.4 µM)
- C=C(C)C(CC=C(C)C)Cc1c(O)cc(OC)c(C(=O)C(=O)c2ccc(O)cc2O)c1O (stereo not given) [SOPHORADIONE] — 3.7-fold higher, 29.4 µg/mL (≈ 66.7 µM)
- CC(C)=CCOc1cc(O)c2c(c1CC=C(C)C)OC(c1ccc(O)cc1O)CC2=O (stereo not given) [SOPHORAFLAVANONE L] — within 1.5-fold, 7.1 µg/mL (≈ 16.7 µM)
